These results are taken from publication PMC12491715 (Acta Pharmaceutica Sinica. B, 2025).

Data set [1] deals with T1, BChE (Mus musculus, UniProt Q03311).
T1 construct: from tissue; host or cells: mouse serum (C57BL/6JRccHsd)
As to the kind of experiment: Cholinesterase inhibition upon repeated dosing, serum BChE. The format is in vivo, C57BL/6JRccHsd mice. As to conditions: for remaining activity at 1 mg/kg / remaining activity at 5 mg/kg: mouse, po. The source says:
The 12 mice used in this pilot study were 9–14 months old male wild-type C57BL/6JRccHsd mice bred in the Laboratory of Animal Genomics at the Faculty of Veterinary Medicine, University of Ljubljana, or purchased from Envigo RMS Holding Corp. Mice were conventionally bred in open polycarbonate cages (Tecniplast, Buguggiate, Italy) and provided with wood chip bedding (Lignocel®, Rettenmaier and Sons, Germany). Mice were kept under standard conditions, including a 12:12 dark–light cycle (LED, CCT 3000 k, with no more than 25 lux above the cage), a temperature range of 21–24 °C, and humidity between 50%–60%. They were fed irradiated rodent diet (Teklad global 16% protein rodent diet®, BN 2916, Envigo, Udine, Italy) and had access to drinkable tap water ad libitum. Due to the nature of this pilot study, the mice were housed individually. The experimental design was evaluated by the National Ethics Committee for Animal Experiments and approved by the Veterinary Administration of the Republic of Slovenia (document no. U34401-10/2021/8, with amendments U34401-10/2021/13 and U34401-10/2021/1).
Before the start of study, blood was drawn from the submandibular vein (facial vein) of the animals under isoflurane inhalation anesthesia (Isoflurin®, VetPharma, Spain) using a 5 mm lancet (Goldenrod Animal Sterile, MEDIpoint, Inc., NY, USA), collected in a microtube (Eppendorf, Safe-Lock tube, 0.5 mL, Eppendorf AG, Germany) and allowed to clot. After approximately 1 h, the blood was centrifuged at 6000 × g for 15 min at 4 °C to obtain the sera, which were stored at –80 °C until analysis.
Seven animals received the 1 mg/kg dose of compound 8, and five animals received the 5 mg/kg dose of compound 8. Compound 8 was prepared as a stock solution in 100% MeCN (5 and 10 mg/mL) and kept refrigerated for the duration of the study. The dosages were prepared as follows: based on the animal’s body weight, a calculated volume of compound 8 stock solution was accurately pipetted onto a cubic piece (approx. 50 mg) of sterilized toast (Ölz multigrain toast, Rudolf Ölz Meisterbäcker GmbH & Co KG, Austria), and left to dry at room temperature for 5 min. Subsequently, 25 μL of 50% sucrose in distilled water were added at the same site to mask the bitter taste of compound 8. These dosage units were prepared twice a week during the study and stored in a closed glass petri dish at room temperature until use. […] Compound 8 was administered in this way for 27 days, eliminating the need for repeated handling and injection. The animals were observed daily for general activity level, hair coat quality or other abnormal behavior or clinical signs.
24 h after the last dose was administered, the mice were humanly euthanized under isoflurane inhalation anesthesia (Isoflurin®, VetPharma, Spain) and the blood was withdrawn from the left ventricle using a syringe, collected in a microtube (Eppendorf, Safe-Lock tube, 0.5 mL, Eppendorf AG, Germany) and allowed to clot. After approximately 1 h, the blood was centrifuged at 6000 × g for 15 min at 4 °C to obtain the sera, which were stored at –80 °C until analysis. […] Animal sera (5–10 μL) were diluted in 0.5 mmol/L DTNB in 0.1 mol/L sodium phosphate buffer pH 7.4 (total volume 1000 μL), substrate (5 μL of 100 mmol/L, final concentration 0.5 mmol/L) was added, and the increase in absorbance monitored for 3 min. BChE activity was determined using butyrylthiocholine iodide, while AChE activity was determined on isoOMPA-inhibited sera (buffer-diluted sera were preincubated for 25 min with 1 μL of 100 mmol/L isoOMPA–0.1 mmol/L final concentration) using acetylthiocholine iodide (final concentration 0.5 mmol/L). Measurements were performed in triplicate and pairwise compared before and after treatment for each subject (n = 5 per group).

In data set [2] the test system is C57BL/6JRccHsd mice. As to the kind of experiment: Daily observation during repeated dosing. As to conditions: 1 or 5 mg/kg p.o. daily for 27 days. Type of data set: in vivo. Here is the method:
[…]. […] Due to the nature of this pilot study, the mice were housed individually.
Seven animals received the 1 mg/kg dose of compound 8, and five animals received the 5 mg/kg dose of compound 8. Compound 8 was prepared as a stock solution in 100% MeCN (5 and 10 mg/mL) and kept refrigerated for the duration of the study. The dosages were prepared as follows: based on the animal’s body weight, a calculated volume of compound 8 stock solution was accurately pipetted onto a cubic piece (approx. 50 mg) of sterilized toast (Ölz multigrain toast, Rudolf Ölz Meisterbäcker GmbH & Co KG, Austria), and left to dry at room temperature for 5 min. Subsequently, 25 μL of 50% sucrose in distilled water were added at the same site to mask the bitter taste of compound 8. These dosage units were prepared twice a week during the study and stored in a closed glass petri dish at room temperature until use. For administration, the toast pieces were placed on the floor of the cage at the same time each day, and left for the animal to eat it voluntarily (the consumption of the dosage was confirmed by observation). Compound 8 was administered in this way for 27 days, eliminating the need for repeated handling and injection. The animals were observed daily for general activity level, hair coat quality or other abnormal behavior or clinical signs.

“And” between values parts separate entries of the source, which are not always exact repeats. Identical values can stand only once. Like-named read-outs stand apart in the source and are kept apart here.

T1 sequence (Q03311 30-603): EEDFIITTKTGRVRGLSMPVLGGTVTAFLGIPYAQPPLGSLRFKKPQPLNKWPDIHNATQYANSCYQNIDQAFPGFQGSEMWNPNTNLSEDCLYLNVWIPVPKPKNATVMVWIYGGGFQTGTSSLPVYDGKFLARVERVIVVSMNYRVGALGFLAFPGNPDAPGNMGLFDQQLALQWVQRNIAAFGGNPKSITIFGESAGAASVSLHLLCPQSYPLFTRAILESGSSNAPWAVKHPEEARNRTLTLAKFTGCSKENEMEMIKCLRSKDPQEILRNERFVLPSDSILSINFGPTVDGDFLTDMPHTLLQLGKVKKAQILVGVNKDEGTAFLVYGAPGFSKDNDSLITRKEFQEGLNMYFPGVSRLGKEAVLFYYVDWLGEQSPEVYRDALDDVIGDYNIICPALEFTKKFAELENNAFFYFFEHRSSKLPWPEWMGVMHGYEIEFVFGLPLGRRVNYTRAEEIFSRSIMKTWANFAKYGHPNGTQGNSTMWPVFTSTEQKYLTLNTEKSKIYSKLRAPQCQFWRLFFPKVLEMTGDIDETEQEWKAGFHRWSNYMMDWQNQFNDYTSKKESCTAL

Turning to `CCN(CC)C(=O)n1cnc(C2(CC)Cc3ccccc3C2)c1` [Compound 8, N,N-Diethyl-4-(2-ethylindan-2-yl)-1H-imidazole-1-carboxamide], the “BChE residual activity, AVERAGE” value in data set [1] (1 mg/kg p.o. once a day for 4 weeks, compared to before treatment, 1 mg/kg) was 21%±6%; in data set [1] (5 mg/kg p.o. once a day for 4 weeks, compared to before treatment, 5 mg/kg) it was 10%±5%. In addition, the “BChE activity AFTER treatment” value in data set [1] (1 mg/kg p.o. once a day, individual animals, 1 mg/kg) was 0.2139±0.0118 U/mL and 0.1602±0.0041 U/mL and 0.1484±0.0071 U/mL and 0.2261±0.0071 U/mL and 0.2214±0.0082 U/mL; in data set [1] (5 mg/kg p.o. once a day, individual animals, 5 mg/kg), 0.1060±0.0071 U/mL and 0.0989±0.0071 U/mL and 0.0801±0.0268 U/mL and 0.0683±0.0108 U/mL and 0.0919±0.0000 U/mL. Moreover, the BChE residual activity in data set [1] (1 mg/kg p.o. once a day, individual animals, after vs before treatment, 1 mg/kg) was 27.0%±4.2% and 15.9%±1.1% and 19.4%±1.8% and 20.1%±2.4%; in data set [1] (5 mg/kg p.o. once a day, individual animals, after vs before treatment, 5 mg/kg), 10.6%±1.7% and 6.9%±2.9% and 12.1%±2.7% and 10.8%±2.1%. Also, the remaining activity at 1 mg/kg was determined as 20.6% in data set [1] (1 mg/kg p.o. once a day for 4 weeks, compared to before treatment, read-out: BChE residual activity, AVERAGE) and 20.3% in data set [1] (1 mg/kg p.o. once a day, individual animals, after vs before treatment, read-out: BChE residual activity). Besides, the remaining activity at 5 mg/kg in data set [1] (5 mg/kg p.o. once a day for 4 weeks, compared to before treatment, read-out: BChE residual activity, AVERAGE) was 10.1%; in data set [1] (5 mg/kg p.o. once a day, individual animals, after vs before treatment, read-out: BChE residual activity), 10.1%. Besides, the “adverse effects on repeated dosing” value in data set [2] is on record as “No adverse effects were observed”.
